Reference: US20230107642A1 (Erasca, Inc., priority 2020, published 2023)

target: T1, K-Ras G12C (Homo sapiens, UniProt P01116, G12C); assay: CAF assay (% CAF; method in Example 7, not in this part); type: binding; details: 10 uM compound, 1 h incubation
T1 construct: This protein contained 188 amino acids in total, including an N-terminal 6-Histidine tag; made in house; host or cells: E. coli BL21

| % CAF @ 10 uM, 1h | SMILES |
| --- | --- |
| 55.1% | C=CC(=O)N1C[C@H](C)N(c2nc(=O)n3c4c(c(-c5ccc(F)cc5)c(Cl)cc24)SC[C@@H]3CN2CCN(CC(F)F)CC2)C[C@H]1C [Example 515, (S)-7-((2S,5R)-4-acryloyl-2,5-dimethylpiperazin-1-yl)-9-chloro-3-((4-(2,2-difluoroethyl)piperazin-1-yl)methyl)-10-(4-fluorophenyl)-2H-[1,4]thiazino[2,3,4-ij]quinazolin-5(3H)-one] |
| 35% | C=CC(=O)N1CCN(c2nc(=O)n3c4c(c(-c5cc(Cl)c(F)cc5F)c(C(F)(F)F)cc24)SC[C@H]3COCOC)[C@@H](C)C1 [Example 470, (3R)-7-((S)-4-acryloyl-2-methylpiperazin-1-yl)-10-(5-chloro-2,4-difluorophenyl)-3-((methoxymethoxy)methyl)-9-(trifluoromethyl)-2H-[1,4]thiazino[2,3,4-ij]quinazolin-5(3H)-one] |
| 78.6% | C=CC(=O)N1C[C@H](C)N(c2nc(=O)n3c4c(c(-c5ccc(F)cc5F)c(C(F)(F)F)cc24)SC[C@@H]3COC)C[C@H]1C [Example 493, (3S)-7-((2S,5R)-4-acryloyl-2,5-dimethylpiperazin-1-yl)-10-(2,4-difluorophenyl)-3-(methoxymethyl)-9-(trifluoromethyl)-2H-[1,4]thiazino[2,3,4-ij]quinazolin-5(3H)-one] |
| 97% | C=CC(=O)N1CCN(c2nc(=O)n3c4c(c(-c5cc(Cl)c(F)cc5F)c(C(F)(F)F)cc24)SC[C@H](OC)C3)CC1 [Example 534, (3R)-8-(4-acryloylpiperazin-1-yl)-11-(5-chloro-2,4-difluorophenyl)-3-methoxy-10-(trifluoromethyl)-3,4-dihydro-2H,6H-[1,4]thiazepino[2,3,4-ij]quinazolin-6-one] |

The remaining lines, values behind:

| SMILES | % CAF @ 10 uM, 1h |
| --- | --- |
| C=CC(=O)N1C2CC(=O)CC1CN(c1nc(=O)n3c4c(c(-c5ccc(F)cc5F)c(C(F)(F)F)cc14)SCCC3)C2 [Example 486, 8-(9-acryloyl-7-oxo-3,9-diazabicyclo[3.3.1]nonan-3-yl)-11-(2,4-difluorophenyl)-10-(trifluoromethyl)-3,4-dihydro-2H,6H-[1,4]thiazepino[2,3,4-ij]quinazolin-6-one] | 95% |
| O=C1CC2CN(c3nc(=O)n4c5c(c(-c6ccc(F)cc6F)c(C(F)(F)F)cc35)SCC4)CC(C1)N2C(=O)/C=C/C(F)F [Example 439, (E)-7-(9-(4,4-difluorobut-2-enoyl)-7-oxo-3,9-diazabicyclo[3.3.1]nonan-3-yl)-10-(2,4-difluorophenyl)-9-(trifluoromethyl)-2,3-dihydro-5H-[1,4]thiazino[2,3,4-ij]quinazolin-5-one] | 97% |
| C=CC(=O)N1[C@H](C)CN(c2nc(=O)n3c4c(c(-c5cc(F)c(F)cc5F)c(Cl)cc24)SC[C@@H]3COC)C[C@@H]1C [Example 506, (3S)-7-((3S,5R)-4-acryloyl-3,5-dimethylpiperazin-1-yl)-9-chloro-3-(methoxymethyl)-10-(2,4,5-trif1uorophenyl)-2,3-dihydro-5H-[1,4]thiazino[2,3,4-ij]quinazolin-5-one] | 17.5% |
| CC#CC(=O)N1C2CC(=O)CC1CN(c1nc(=O)n3c4c(c(-c5ccc(F)cc5F)c(C(F)(F)F)cc14)SCC3)C2 [Example 453, 7-(9-(but-2-ynoyl)-7-oxo-3,9-diazabicyclo[3.3.1]nonan-3-yl)-10-(2,4-difluorophenyl)-9-(trifluoromethyl)-2,3-dihydro-5H-[1,4]thiazino[2,3,4-ij]quinazolin-5-one] | 37% |
| C=CC(=O)N1[C@H](C)CN(c2nc(=O)n3c4c(c(-c5ccc(F)cc5F)c(C(F)(F)F)cc24)SC[C@@H]3COC)C[C@@H]1C (atropisomer, axis not shown) [Example 546, (3S,10S)-7-((3S,5R)-4-acryloyl-3,5-dimethylpiperazin-1-yl)-10-(2,4-difluorophenyl)-3-(methoxymethyl)-9-(trifluoromethyl)-2,3-dihydro-5H-[1,4]thiazino[2,3,4-ij]quinazolin-5-one] | 94.3% |
| C=CC(=O)N1C[C@H](C)N(c2nc(=O)n3c4c(c(-c5cc(Cl)c(F)cc5F)c(C(F)(F)F)cc24)SC[C@@H]3COCCOC)C[C@H]1C (atropisomer, axis not shown) [Example 555, (3S,10R)-7-((2S,5R)-4-acryloyl-2,5-dimethylpiperazin-1-yl)-10-(5-chloro-2,4-difluorophenyl)-3-((2-methoxyethoxy)methyl)-9-(trifluoromethyl)-2,3-dihydro-5H-[1,4]thiazino[2,3,4-ij]quinazolin-5-one] | 67.6% |
| C=CC(=O)N1CCN(c2nc(=O)n3c4c(c(-c5ccc(F)cc5F)c(Cl)cc24)SC2(CC2)C3)[C@@H](C)C1 [Example 433, 7′-((S)-4-acryloyl-2-methylpiperazin-1-yl)-9′-chloro-10′-(2,4-difluorophenyl)-3′H,5′H-spiro[cyclopropane-1,2′-[1,4]thiazino[2,3,4-ij]quinazolin]-5′-one] | 25.3% |
| C=CC(=O)N1C[C@H](C)N(c2nc(=O)n3c4c(c(-c5ccc(F)cc5F)c(C(F)(F)F)cc24)SC[C@@H]3COC)C[C@H]1C (atropisomer, axis not shown) [Example 508, (3S,10S)-7-((2S,5R)-4-acryloyl-2,5-dimethylpiperazin-1-yl)-10-(2,4-difluorophenyl)-3-(methoxymethyl)-9-(trifluoromethyl)-2,3-dihydro-5H-[1,4]thiazino[2,3,4-ij]quinazolin-5-one] | 92% |

same assay, conditions: 10 uM, 60 min; Table 2a

| % CAF 10 uM @ 60 min | SMILES |
| --- | --- |
| 67% | C=CC(=O)N1CCN(c2nc(=O)n3c4c(c(-c5cc(C6CC6)ccc5F)c(Cl)cc24)SCC3)[C@@H](C)C1 [Example 62a, 7-((S)-4-acryloyl-2-methylpiperazin-1-yl)-9-chloro-10-(5-cyclopropyl-2-fluorophenyl)-2,3-dihydro-5H-[1,4]thiazino[2,3,4-ij]quinazolin-5-one] |

same assay, conditions: 10 uM, 1 h; Table 3

| % CAF @ 10 uM, 1h | SMILES |
| --- | --- |
| 93.8% | C=CC(=O)N1CCN(c2nc(=O)n3c4c(c(-c5cccc(Cl)c5F)c(Cl)cc24)SCC3)[C@@H](C)C1 [Example 174, 7-((S)-4-acryloyl-2-methylpiperazin-1-yl)-9-chloro-10-(3-chloro-2-fluorophenyl)-2,3-dihydro-5H-[1,4]thiazino[2,3,4-ij]quinazolin-5-one] |
| 94.7% | C=CC(=O)N1CCN(c2nc(=O)n3c4c(c(-c5ccc(F)cc5F)c(Cl)cc24)SCC3)[C@@H](C)C1 (atropisomer, axis not shown) [Example 180, (R)-7-((S)-4-acryloyl-2-methylpiperazin-1-yl)-9-chloro-10-(2,4-difluorophenyl)-2,3-dihydro-5H-[1,4]thiazino[2,3,4-ij]quinazolin-5-one] |
| 65.5% | C=CC(=O)N1CCN(c2nc(=O)n3c4c(c(-c5ccc(F)cc5F)c(Cl)cc24)SCC3)CC1=O [Example 166, 7-(4-acryloyl-3-oxopiperazin-1-yl)-9-chloro-10-(2,4-difluorophenyl)-2,3-dihydro-5H-[1,4]thiazino[2,3,4-ij]quinazolin-5-one] |

More lines, now with the values behind:

| SMILES | % CAF @ 10 uM, 1h |
| --- | --- |
| C=CC(=O)N1CCN(c2nc(=O)n3c4c(c(-c5ccc(F)cc5F)c(Cl)cc24)SCC3)C2CCC21 (stereo not drawn) [Example 145, 7-(5-acryloyl-2,5-diazabicyclo[4.2.0]octan-2-yl)-9-chloro-10-(2,4-difluorophenyl)-2,3-dihydro-5H-[1,4]thiazino[2,3,4-ij]quinazolin-5-one] | 58% |
| C=CC(=O)N1C2CSCC1CN(c1nc(=O)n3c4c(c(-c5ccc(F)cc5F)c(Cl)cc14)SCC3)C2 [Example 129, 7-(9-acryloyl-3-thia-7,9-diazabicyclo[3.3.1]nonan-7-yl)-9-chloro-10-(2,4-difluorophenyl)-2,3-dihydro-5H-[1,4]thiazino[2,3,4-ij]quinazolin-5-one] | 95.3% |
| C=CC(=O)N1CCN(c2nc(=O)n3c4c(c(-c5ccc(F)cc5F)c(Cl)cc24)SCC3)C2CN(S(C)(=O)=O)CC21 (stereo not drawn) [Example 118, 7-(4-acryloyl-6-(methylsulfonyl)octahydro-1H-pyrrolo[3,4-b]pyrazin-1-yl)-9-chloro-10-(2,4-difluorophenyl)-2,3-dihydro-5H-[1,4]thiazino[2,3,4-ij]quinazolin-5-one] | 48.3% |
| C=CC(=O)N1CCN(c2nc(=O)n3c4c(c(-c5ccc(F)cc5F)c(Cl)cc24)SCC3)[C@@H](CO)C1 [Example 150, 7-((R)-4-acryloyl-2-(hydroxymethyl)piperazin-1-yl)-9-chloro-10-(2,4-difluorophenyl)-2,3-dihydro-5H-[1,4]thiazino[2,3,4-ij]quinazolin-5-one] | 59.9% |
| C=CC(=O)N1CCN(c2nc(=O)n3c4c(c(-c5ccc(F)c(Cl)c5)c(Cl)cc24)SCC3)[C@@H](C)C1 [Example 98, (S)-7-(4-acryloyl-2-methylpiperazin-1-yl)-9-chloro-10-(3-chloro-4-fluorophenyl)-2,3-dihydro-5H-[1,4]thiazino[2,3,4-ij]quinazolin-5-one] | 86.4% |
| C=CC(=O)N1CCN(c2nc(=O)n3c4c(c(-c5ccc(F)cc5F)c(Cl)cc24)SCC3)C[C@H]1C [Example 139, 7-((R)-4-acryloyl-3-methylpiperazin-1-yl)-9-chloro-10-(2,4-difluorophenyl)-2,3-dihydro-5H-[1,4]thiazino[2,3,4-ij]quinazolin-5-one] | 94.8% |

same assay, conditions: 10 μM, 1 h; Table 4

| SMILES | % CAF @ 10 μM, 1 h |
| --- | --- |
| C=CC(=O)N1CCN(c2nc(=O)n3c4c(c(-c5ccc(F)cc5F)c(C(F)(F)F)cc24)SC[C@@H]3CN2CCN(CC(F)F)CC2)[C@@H](C)C1 [Example 19, (3S)-7-((S)-4-acryloyl-2-methylpiperazin-1-yl)-3-((4-(2,2-difluoroethyl)piperazin-1-yl)methyl)-10-(2,4-difluorophenyl)-9-(trifluoromethyl)-2H-[1,4]thiazino[2,3,4-ij]quinazolin-5(3H)-one] | 96% |
| C=CC(=O)N1C2CC(=O)CC1CN(c1nc(=O)n3c4c(c(-c5ccc(F)cc5F)c(C(F)(F)F)cc14)OCCC3)C2 [Example 338, 8-(9-acryloyl-7-oxo-3,9-diazabicyclo[3.3.1]nonan-3-yl)-11-(2,4-difluorophenyl)-10-(trifluoromethyl)-3,4-dihydro-2H,6H-[1,4]oxazepino[2,3,4-ij]quinazolin-6-one] | 95.3% |
